# Assay results published in patent US11077167B2, “Agent for promoting skeletal muscle injury repair” (Osaka University, priority 2017, dated 2021).
# What was measured:
# [1] = system: muscle injury model rats (incised masseter muscles on both sides); test: In vivo skeletal muscle forming capability (HE, MyoD, myogenin staining at postoperative week 1), Example 4; parameters: species or system Jcl:SD rats
# Protocol: In the same manner as in Example 2, incisions were made in masseter muscles on both sides in Jcl:SD rats (10 weeks old) under anesthesia, and immediately after that, the rats were subjected to administration of 1 mL of the SV peptide (20 ng/mL) or 1 mL of PBS into the incised left masseter muscle without administration into the incised right masseter muscle. The two groups were called “SV group” and “PBS group”. Each rat was euthanized at postoperative week 1, and the masseter muscles on both sides were excised. The masseter muscles were embedded in paraffin and transversally sliced into histological sections by the usual method. The sections were subjected to HE staining, immunostaining with an anti-MyoD antibody and immunostaining with an anti-myogenin antibody. The anti-MyoD antibody used was an anti-mouse MyoD antibody (Abcam), and the anti-myogenin antibody used was an anti-mouse myogenin antibody (Abcam). A biotin-labeled anti-rabbit IgG antibody (DAKO) was used as a secondary antibody.
# The area of granulation tissue formed on the cut surfaces was measured on the HE-staining specimens using the image-analysis software ImageJ (NIH, USA). The granulation tissue area ratios in the SV group and the PBS group were separately calculated using the following formula. […]
# (§1) Images of the MyoD-immunostained specimens were taken with a digital camera mounted on a microscope, and the number of MyoD-positive nuclei in the muscle tissue area extending 2.5 mm on each side of the muscle incision site was counted. The MyoD-positive ratios in the SV group and the PBS group were separately calculated using the following formula. […]
# as §1, with “myogenin-immunostained” for “MyoD-immunostained”, “myogenin-positive” for “MyoD-positive”
# [2] = system: fibroblasts; conditions: Patent Literature 4; cited from earlier work
# [3] = system: Human skeletal muscle myoblasts (HSMMs); test: Cell proliferative capacity (WST-1 assay); assay type: cell-based; conditions: SV peptide 20 ng/mL
# Protocol: (§2) Human skeletal muscle myoblasts (HSMMs) were purchased from Lonza and used. The medium used for HSMM culture was the supplier's recommended medium (Skeletal Muscle Growth Media-2 supplemented with SingleQuots Kit).
# Human skeletal muscle satellite cells and human skeletal muscle myoblasts were separately seeded at 1.0×10^4 cells/mL in each well of non-treated polystyrene 96-well cell culture plates (Falcon). The SV peptide (20 ng/mL, SV group), the random SV (20 ng/mL, random SV group), or PBS (PBS group) was added to the medium. The plates were cultured at 37° C. in a 5% CO2 atmosphere. After 0, 12, 24, 48, and 72 hours, cell proliferation was assessed using Premix WST-1 Cell Proliferation Assay System (Takara Bio, Japan).
# [4] = system: Human skeletal muscle myoblasts (HSMMs); test: Cell migratory capacity (cell-denuded area); assay type: cell-based; conditions: SV peptide 20 ng/mL
# Protocol: as §2
# Human skeletal muscle satellite cells and human skeletal muscle myoblasts were separately cultured on 60-mm (diameter) dishes (Iwaki) to 100% confluency. From each dish, a 2-mm-wide strip of cells were removed, and the medium was replaced with a medium containing the SV peptide (20 ng/mL, SV group), the random SV (20 ng/mL, random SV group), or PBS (PBS group). Thereafter, culture was continued. Images were taken with a digital camera mounted on a phase-contrast microscope every 12 hours. The cell-denuded area was measured using the image-analysis software ImageJ (NIH, USA). The cell migration percentage was determined by calculating the percentage of reduction in the cell-denuded area relative to the value immediately after cell removal.
substance,measurement,setting,value
SVVYGLR [SV peptide],granulation tissue area ratio (administration side / non-administration side),[1]; HE staining,significant reduction in granulation tissue formation
same,MyoD-positive ratio (administration side / non-administration side),"[1]; MyoD immunostaining, SV group vs PBS group",significant increase of MyoD-positive cells as compared with the PBS group
same,myogenin-positive ratio (administration side / non-administration side),"[1]; myogenin immunostaining, SV group vs PBS group",significant increase of myogenin-positive cells as compared with the PBS group
same,type III collagen production in fibroblasts,[2],promotes type III collagen production in fibroblasts
same,cell proliferative capacity,[3]; time course within SV group,significantly increased after 24-hour treatment with the SV peptide and then reached a plateau
same,cell proliferative capacity,"[3]; vs PBS group or random SV group, 12 hours and thereafter",significantly higher at 12 hours post-treatment and remained significantly higher thereafter than that in the PBS group or the random SV group
same,cell migratory capacity (cell migration percentage),[4]; 36 and 48 hours after cell removal,significantly different from that in the PBS group or the random SV group
same,cell migratory capacity (cell migration percentage),[4]; 24 hours after cell removal and thereafter,higher than that in the PBS group or the random SV group
